Data reported in patent US20020058701A1 (priority 2000, published 2002).

How the values were obtained:
[1] = system: C57BL/ks diabetic (db/db) mice; assay: Glucose-lowering (plasma glucose) in diabetic db/db mice; format: in vivo; settings: for Change in Glucose (mg/dL) 6 H: 6 h after initial dose; for Change in Glucose (mg/dL) 30 H: 30 h after initial dose; for Change in Glucose (mg/dL) 54 H: 54 h after initial dose
Protocol: (§1) Genetically altered obese diabetic mice (designated C57BL/ks diabetic or db/db) were purchased from the Jackson Laboratory (Bar Harbor, Me., USA), and served as experimental animals. Male animals between the ages of 8-9 weeks were employed in the studies described here. Animals were housed (4 mice/cage) under standard laboratory conditions at 22° C. and 50% relative humidity, and were maintained on a diet of Purina rodent chow and water ad libitum. Prior to treatment, blood was collected from the tail vein of each animal. Mice that had plasma glucose levels between 350 and 600 mg/dL were used. Each treatment group consisted of eight mice that were distributed so that the mean glucose levels were equivalent in each group at the start of the study. Db/db mice received, orally by gavage: the experimental compound administered at 62.5, 125, or 250 mg/kg/day (unless otherwise noted), or metformin administered at […] for 1-3 days. Test compounds were delivered in a liquid vehicle containing 0.25% (w/v) carboxymethyl-cellulose, 1% (v/v) Tween […] (polyoxyethylene sorbitan monosterate), and up to 10% (v/v) dimethyl sulfoxide (DMSO) in a volume of 10 ml/kg. Blood was sampled from the tail vein at three hours, six, eight, twenty-four, and thirty hours post-administration (the first administration) of the particular compound in non-fasted conditions. Experiments 3-5 also sampled blood at fifty-four hours post-administration (the first administration) of the particular compound in non-fasted conditions. Blood samples were analyzed for plasma glucose levels. Individual body weights and mean food consumption (each cage) were also measured daily.
The isolated test substances were prepared as described previously (vide supra). Metformin (1,1-dimethylbiguanide), carboxymethyl cellulose and Tween 60 were purchased from Sigma Chemical Co. (St. Louis, Mo., USA; catalog #'s D-5035, C-4888, and p-1629, respectively). Plasma glucose levels were determined colorimetrically using glucose oxidase (Sigma Chemical Co.; Sigma catalog #315). Significant differences between groups (comparing compound-treated to vehicle-treated) were evaluated using analysis of variance and Fisher's post-hoc test.
Vehicle, metformin (250 mg/kg) or enriched extract (1000 mg/kg) were given to db/db mice at 0(initial), 8, 24, 32, 48, 56, 72, 80, and 96 hours post initial dose.
Plasma glucose levels were measured at baseline, 3 (day 1), 51 hours (Day 3), and 99 hours (Day 5).

[2] = Body weights and food consumption in diabetic db/db mice; format: in vivo
Protocol: as §1

COc1cc(O)cc(CCc2ccccc2)c1 [Compound G]
Change in Glucose (mg/dL) 6 H ([1]; 125 mg/kg q.d. oral at 0, 24, 48 h, vehicle 15.5, Table 8): 35.0 mg/dL
Change in Glucose (mg/dL) 30 H ([1]; 125 mg/kg q.d. oral at 0, 24, 48 h, vehicle 56.6, Table 8): -12.2 mg/dL
Change in Glucose (mg/dL) 54 H ([1]; 125 mg/kg q.d. oral at 0, 24, 48 h, vehicle 88.6, Table 8): 12.0 mg/dL
mean glucose levels rose from the baseline values ([1]; Table 8, 125 mg/kg, fifty-four hours after initial dosing, value = size of rise): 12.0 mg/dL
mean glucose levels declined from the baseline value ([1]; Table 8, printed dose 250 mg/kg, thirty hours after initial dosing, value = size of decline): 74.6 mg/dL
reduction in plasma glucose relative to vehicle (control) (in words) ([1]; oral, dose level of 125 mg/kg, Tables 8 and 10): statistically significant reduction
Food Intake (g/mouse) 0-48 h ([2]; 125 mg/kg, vehicle 6.0, Table 9): 5.9 g/mouse
Body weight (g/mouse) (mean) 0 h ([2]; 125 mg/kg, vehicle 39.8 ± 0.7, Table 9): 39.0 ± 1.1 g/mouse
Body weight (g/mouse) (mean) 48 hr ([2]; 125 mg/kg, vehicle 39.7 ± 0.6, Table 9): 39.0 ± 1.1 g/mouse
adverse effect on food intake or body weight (in words) ([2]; 125 mg/kg, Tables 9 and 11): absence of any significantly adverse effect

CN(C)C(=N)NC(=N)N [Metformin, 1,1-dimethylbiguanide, reference compound]
Change in Glucose (mg/dL) 6 H ([1]; 250 mg/kg q.d. oral at 0, 24, 48 h, vehicle 35.9, Tables 4 and 6): -180.4 mg/dL
Change in Glucose (mg/dL) 30 H ([1]; 250 mg/kg q.d. oral at 0, 24, 48 h, vehicle 79.6, Tables 4 and 6): -112.4 mg/dL
Change in Glucose (mg/dL) 54 H ([1]; 250 mg/kg q.d. oral at 0, 24, 48 h, vehicle 60.3, Tables 4 and 6): -41.3 mg/dL
glucose levels rose ([1]; Table 8, metformin 250 mg/kg, fifty-four hours after the initial dose, value = size of rise): 6.8 mg/dL
lowered plasma glucose levels by ([1]; Table 8, metformin 250 mg/kg, six hours after the initial dose, value = size of decline): approximately 113.6 mg/dL
lowered plasma glucose levels by ([1]; Table 8, metformin 250 mg/kg, thirty hours after the initial dose, value = size of decline): ~25.1 mg/dL
mean glucose levels declined from the baseline values ([1]; Tables 4 and 6, 250 mg/kg, fifty-four hours after initial dosing, value = size of decline): 41.3 mg/dL
mean glucose levels declined (lowered) from the baseline value ([1]; Tables 4 and 6, 250 mg/kg, six hours after initial dosing, value = size of decline): approximately 180.4 mg/dL
mean glucose levels declined (lowered) from the baseline values ([1]; Tables 4 and 6, 250 mg/kg, thirty hours after initial dosing, value = size of decline): ~112.4 mg/dL
Change in Glucose (mg/dL) 6 H ([1]; metformin 250 mg/kg q.d. oral, vehicle 15.5, Table 8): -113.6 mg/dL
Change in Glucose (mg/dL) 30 H ([1]; metformin 250 mg/kg q.d. oral, vehicle 56.6, Table 8): -25.1 mg/dL
Change in Glucose (mg/dL) 54 H ([1]; metformin 250 mg/kg q.d. oral, vehicle 88.6, Table 8): 6.8 mg/dL
Day 1 glucose ([1]; metformin 250 mg/kg, same schedule as extracts, 3 h post initial dose, vehicle −80.9): -180.5 mg/dL
Day 3 glucose ([1]; metformin 250 mg/kg, same schedule as extracts, 51 h post initial dose, vehicle −77.1): -207.5 mg/dL
Day 5 glucose ([1]; metformin 250 mg/kg, same schedule as extracts, 99 h post initial dose, vehicle +102.1): -86.4 mg/dL
Food Intake (g/mouse) 0-48 h ([2]; 250 mg/kg, vehicle 6.0, Table 9): 5.4 g/mouse
Food Intake (g/mouse) 0-48 h ([2]; 250 mg/kg, vehicle 6.3, Tables 5 and 7): 5.1 g/mouse
Body weight (g/mouse) (mean) 0 h ([2]; 250 mg/kg, vehicle 39.2 ± 0.5, Tables 5 and 7): 37.3 ± 0.7 g/mouse
Body weight (g/mouse) (mean) 0 h ([2]; 250 mg/kg, vehicle 39.8 ± 0.7, Table 9): 40.6 ± 0.4 g/mouse
Body weight (g/mouse) (mean) 48 hr ([2]; 250 mg/kg, vehicle 39.5 ± 0.5, Tables 5 and 7): 37.2 ± 0.6 g/mouse
Body weight (g/mouse) (mean) 48 hr ([2]; 250 mg/kg, vehicle 39.7 ± 0.6, Table 9): 40.5 ± 0.4 g/mouse
